Source: PMC6579712 (Xenobiotica; the fate of foreign compounds in biological …, 2018)
“Also recorded” adds a separate entry of the source. Like-named read-outs stand apart in the source and are kept apart here.

Key:
[1] = in vivo
[2] = test system: RT-SHIV; assay: 90% inhibitory quotient; design: IQ90 in NHP brain tissue, one individual animal: unit not given beside the values; conditions: for IQ90 in NHP brain tissue, one individual animal: the single animal above 1
[3] = ARV concentrations in brain tissue and plasma by LC-MS/MS, hu-HSC-RAG mice; conditions: p=0.29
[4] = in vitro; assay type: in vitro ADME, rhesus macaques; conditions: rhesus macaque, frontal cortex brain tissue homogenate
[5] = test system: RT-SHIV; assay: IC90 against the RT-SHIV strain of virus; assay type: cell-based
[6] = no reference given; cited from earlier work
[7] = in vivo; cited from earlier work
[8] = test system: HIV; conditions: target value used for colocalization; cited from earlier work
[9] = in vivo; cited from earlier work; remark: listed apart in the source
[10] = cited from earlier work
[11] = ARV concentrations in brain tissue, CSF and plasma by LC-MS/MS, NHPs
[12] = ARV concentrations in brain tissue and plasma by LC-MS/MS, BLT mice; conditions: BLT vs hu-HSC-RAG

CC(Cn1cnc2c(N)ncnc21)OCP(=O)(O)OP(=O)(O)OP(=O)(O)O (stereo in doubt) [TFV-dp, tenofovir diphosphate]
TFV-dp concentration range in all brain tissue samples [1]: 851 to 179,000 fmol/g of tissue
IQ90 in NHP brain tissue, one individual animal [2]: 1.1
fold higher median TFV-dp brain concentration in hu-HSC-RAG vs BLT mice [3]: 10 fold

COC(=O)N[C@H](C(=O)N[C@@H](Cc1ccccc1)[C@@H](O)CN(Cc1ccc(-c2ccccn2)cc1)NC(=O)[C@@H](NC(=O)OC)C(C)(C)C)C(C)(C)C [ATZ, atazanavir]
fraction unbound at 18 h [4]: 0.76
fold higher IC90 against RT-SHIV than against clinical HIV-1 isolates [5]: 1,000 fold
BCS class [6]: class I or class II
CSF concentrations [7]: 5 to 21 ng/mL

O=C1Nc2ccc(Cl)cc2[C@@](C#CC2CC2)(C(F)(F)F)O1 [EFV, efavirenz]
IC50 target [8]: 2 ng/g
BCS class [6]: class I or class II
median brain tissue concentration, human post-mortem [9]: 900 ng/g
blood plasma protein binding ([10]; ref Boffito et al. 2003): 99.5%
total brain tissue concentration, median [range] ([11]; NHP, LC-MS/MS, four brain regions combined): 775 ng/g

Nc1nc(=O)n([C@@H]2CS[C@H](CO)O2)cc1F [FTC, emtricitabine]
protein binding in plasma ([10]; plasma): < 10%
fold higher brain tissue penetration in BLT mice compared to hu-HSC-RAG mice [12]: 5 fold
fold lower CSF concentration in NHPs than human concentrations ([11]; compared with ref Calcagno (2014)): approximately 3 fold

Nc1nc(=O)n([C@@H]2CS[C@H](COP(=O)(O)OP(=O)(O)OP(=O)(O)O)O2)cc1F [FTC-tp, emtricitabine triphosphate]
FTC-tp in brain tissue (all three animal models): not detected; also recorded: not quantifiable

Cc1nnc(C(=O)NC(C)(C)c2nc(C(=O)NCc3ccc(F)cc3)c(O)c(=O)n2C)o1 [RAL, raltegravir]
IQ90 from total brain tissue concentrations ([2]; six of the remaining seven animals): < 1
IQ90 from unbound brain tissue concentration ([2]; the one animal where unbound concentration could be measured): 0.07
IQ90 in NHP brain tissue, one individual animal [2]: 1.1
Kp at 1 day after the last of ten days of dosing (both, hu-HSC-Rag and BLT (mice), mouse (humanized) and rhesus macaque, in vivo): 0.11 to 0.12

C[C@H](Cn1cnc2c(N)ncnc21)OCP(=O)(O)O [TFV, tenofovir]
median brain tissue concentration, human post-mortem [9]: 80 ng/g
protein binding in plasma ([10]; no reference given): < 10%
fold higher brain tissue penetration in BLT mice compared to hu-HSC-RAG mice [12]: 3 fold

maraviroc [MVC]
fold higher IC90 against RT-SHIV than against clinical HIV-1 isolates [5]: 100 fold
